# Experimental data reported in patent publication US20090264342A1, “COMPOSITIONS AND METHODS FOR ANTIBIOTIC POTENTIATION AND DRUG DISCOVERY” (priority 2006, published 2009).
# How the values were obtained:
# [1] = test system: wild type E. coli; experiment: Growth of wild type E. coli in the presence of quinolone (OD600); format: cell-based
# Description: Each deletion strain was constructed by replacing the chromosomal copy of the relevant gene in a wild type E. coli strain (K-12) with a selectable antibiotic resistance gene, essentially as described, to create a precise gene deletion (Datsenko, K. A. and Wanner, B. L., “One-step inactivation of chromosomal genes in Escherichia coli K-12 using PCR products”, Proc Natl Acad Sci USA, 97, 6640-6645, […]); Baba, T., Ara, T., Okumura, Y., iki Hasegawa, M., Takai, Y., Baba, M., Oshima, T., Tomita, M., Wanner, B. and Mori, H. (2003) Systematic construction of single gene deletion mutants in Escherichia coli K-12 (in preparation) and see also the web site at ecoli.aist-nara.ac.jp/gb5/Resources/deletion/deletion.html).
# For each mutant, the ratio of growth of the mutant in the presence of a sublethal concentration of quinolone to growth of the mutant in the absence of quinolone was calculated after 12 hours of growth at 37° C., based on OD600 measurements. […]
# [2] = test system: recA promoter (prec::GFP) in MG1655; experiment: Cell-based recA promoter::GFP reporter assay; set-up: species or system E. coli; settings: recA+ bacteria with reporter construct, in the presence of norfloxacin
# Description: As discussed above, the recA promoter is induced when RecA becomes activated as a result of exposure to DNA damaging agents. The present Applicants hypothesized that exposure to a quinolone may have a similar effect on the recA promoter and that this effect could be exploited to develop a cell-based assay for inhibitors of RecA. A low copy reporter plasmid was used in which the recA promoter controls transcription of the mRNA encoding green fluorescent protein (GFP). The plasmid, referred to herein as prec::GFP, has been previously described (Ronen, 2002). See also Kuang, 2004. prec::GFP contains 2821707-2821893 of the E. coli MG1655 genome (numbering based on the sequenced E. coli genome as reported in Blattner, F. R., et al., Science, 277, pp. 1453-1474, 1997) cloned upstream of a promoterless GFPmut3 gene in a low copy pSC101 origin plasmid as described (Kalir, S., et al., Science, 292, pp. 2080-2083, 2001).
# The prec::GFP plasmid was introduced into MG1655 and MG1655 recA null strains and measured the fluorescence emitted by GFP in the presence or absence of quinolone as compared with background fluorescence detected from cultures of MG1655 lacking the plasmid. Briefly cells of these three strains were grown to early log phase in LB at 37° C. with shaking. […] After 60 minutes, fluorescence due to GFP expression from the reporter plasmid was measured using a spectrophotometer.
# [3] = test system: SOS response (LexA auto-cleavage) in E. coli; experiment: SOS induction, LexA-controlled GFP DNA damage sensor; format: cell-based; settings: 5 μg/mL Amp, 5 μg/mL Kan, 25 ng/mL Nor; 3 hours after addition
# Method: FIG. 37 is a set of two graphs showing SOS induction in E. coli by bactericidal antibiotics. Activation of the SOS response was monitored using an engineered sensor construct that employs the LexA repressor for control of Green Fluorescent Protein (GFP) expression. Shown are representative GFP histogram measurements taken 3 hours after addition of a, bactericidal antibiotics (5 μg/mL Amp, 5 μg/mL Kan, 25 ng/mL Nor). b, Log change in CFU/mL of ΔrecA E. coli following exposure to 5 μg/mL Kanamycin (open diamonds), 25 ng/mL Norfloxacin (open triangles), and 5 μg/mL Ampicillin (open circles). For comparison, CFU/mL are also shown for widltype E. coli exposed to 5 μg/mL Kanamycin (diamonds), 25 ng/mL Norfloxacin (triangles), and 5 μg/mL Ampicillin (circles), as well as a lower concentration of norfloxacin in these experiments to highlight the significant increase in killing in a recA knockout.
# DNA damage sensor construction. The DNA sensor construct with ampicillin resistance was described previously (D. J. Dwyer et al., “Superoxide and hydroxyl radicals contribute to gyrase inhibitor-mediated cell death in E. coli”, 2007 accepted by Mol. Syst. Biol., which is incorporated herein by reference in its entirety).
# Hydroxyl radical and DNA damage sensor experiments using the flow cytometer. […]
# Hydroxyl radical are extremely toxic, and will readily damage membrane lipids, proteins and DNA. […]
structure (smiles),measurement,setting,value
"CCn1cc(C(=O)O)c(=O)c2cc(F)c(N3CCNCC3)cc21 [Nor, norfloxacin]","bacterial growth, % of wild type levels",[1]; 0.05 μg/mL Nor (sublethal concentration),80%
same,concentration that fully inhibits growth of wild type E. coli (lethal concentration),[1]; wild type E. coli,0.1 µg/mL
same,transcription of the recA:GFP reporter gene,[2],increased transcription of the reporter gene
same,SOS activity (LexA-driven GFP expression),[3],significant increase in SOS activity
